Experimental data reported in patent publication US11440913B2, “Aminoimidazopyridazines as kinase inhibitors” (BRISTOL-MYERS SQUIBB COMPANY, priority 2017, dated 2022).
Where two headings read alike, the source gives them in different places.

What was measured:
[1] = biological target: His-GST-TVMV-hRIPK1(1-324) (Homo sapiens (Human), UniProt Q13546); experiment: RIPK1 HTRF Binding Assay; conditions: HTRF binding, 1 h at rt; read-out: RIPK1 (IC50)
Outline: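 HTRF probe-displacement binding: 1 nM His-GST-TVMV-hRIPK1(1-324) (baculovirus construct), 90.6 nM probe, 0.2 nM anti-GST-Tb in 20 mM HEPES, 10 mM MgCl2, 0.015% Brij-35, 4 mM DTT, 0.05 mg/mL BSA. Incubated 1 h at rt; FRET 520/495 nm ratio, inhibition relative to DMSO-only wells.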

[2] = system: MLKL phosphorylation in HT29-L23 human colorectal adenocarcinoma cells; experiment: MLKL Phosphorylation High-Content Assay; type: cell-based; conditions: 6 h, necroptosis induced with TNFα, SMAC mimetic and Z-VAD, read-out: pMLKL (IC50)
Outline: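 HT29-L23 cells pretreated 30 min at 37 °C with compound (6.25 to 0.106 μM final), then necroptosis induced with TNFα 35 ng/mL, SMAC mimetic 700 nM and Z-VAD 140 nM for 6 h. Fixed cells immunostained for MLKL pS358 and imaged; IC50 and Ymax from 4-parameter logistic fit.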

His-GST-TVMV-hRIPK1(1-324), sequence (Q13546 1-324): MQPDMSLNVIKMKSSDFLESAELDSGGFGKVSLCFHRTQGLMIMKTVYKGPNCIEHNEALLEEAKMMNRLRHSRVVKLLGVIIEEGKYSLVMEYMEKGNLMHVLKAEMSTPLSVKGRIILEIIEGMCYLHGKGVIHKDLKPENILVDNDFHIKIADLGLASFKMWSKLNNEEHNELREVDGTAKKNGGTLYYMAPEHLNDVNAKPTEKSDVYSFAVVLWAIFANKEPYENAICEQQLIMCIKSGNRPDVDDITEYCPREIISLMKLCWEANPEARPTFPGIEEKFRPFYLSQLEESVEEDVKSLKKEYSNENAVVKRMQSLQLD

| Compound | IC50 [1] | IC50 ([2]; Homo sapiens) | IC50 [2] |
| --- | --- | --- | --- |
| CC(=O)Nc1cn2nc(-c3cnc(C)c(C(=O)NCc4c(F)cccc4OCC4CCC4)c3)ccc2n1 [Example 219, N-{[2-(cyclobutylmethoxy)-6-fluorophenyl]methyl}-5-{2-acetamidoimidazo[1,2-b]pyridazin-6-yl}-2-methylpyridine-3-carboxamide] | 3 nM | 1 nM | – |
| COc1ncc(-c2ccc3nc(NC(C)=O)cn3n2)cc1C(=O)NCc1cc(OCC2CC2)ccc1F [Example 149, N-{[5-(cyclopropylmethoxy)-2-fluorophenyl]methyl}-5-{2-acetamidoimidazo[1,2-b]pyridazin-6-yl}-2-methoxypyridine-3-carboxamide] | 16 nM | 74 nM | – |
| CC(=O)Nc1cn2nc(-c3cnc(C)c(C(=O)NC(C)c4cc(C(F)(F)F)ccc4F)c3)ccc2n1 (stereo not shown) [Example 204, 5-{2-acetamidoimidazo[1,2-b]pyridazin-6-yl}-N-{1-[2-fluoro-5-(trifluoromethyl)phenyl]ethyl}-2-methylpyridine-3-carboxamide] | 122 nM | 83 nM | – |
| CC(CCNC(=O)c1cccc(-c2ccc3nc(NC(=O)c4ccnc(F)c4)cn3n2)c1)c1ccccc1 (stereo not shown) [Example 24, 2-fluoro-N-(6-{3-[(3-phenylbutyl)carbamoyl]phenyl}imidazo[1,2-b]pyridazin-2-yl)pyridine-4-carboxamide] | 5 nM | 10 nM | – |
| COc1nc(C)c(-c2ccc3nc(NC(C)=O)cn3n2)cc1C(=O)NCc1ccccc1OC1CCOC1 (stereo not shown) [Example 307, 5-{2-acetamidoimidazo[1,2-b]pyridazin-6-yl}-2-methoxy-6-methyl-N-{[2-(oxolan-3-yloxy)phenyl]methyl}pyridine-3-carboxamide] | 11 nM | – | 5 nM |
| 5-{2-acetamidoimidazo[1,2-b]pyridazin- 6-yl}-N-{[3-fluoro-5- (trifluoromethoxy)phenyl]methyl}-2,6- dimethylpyridine-3-carboxamide, TFA [Example 79] | 38 nM | – | 46 nM |
| Cc1ncc(-c2ccc3nc(NC(=O)CN(C)C)cn3n2)cc1C(=O)N[C@H](C)c1cc(OC(F)(F)F)ccc1F [Example 338, 5-{2-[2-(dimethylamino)-acetamido]-imidazo[1,2-b]pyridazin-6-yl}-N-[(1R)-1-[2-fluoro-5-(trifluoromethoxy)-phenyl]ethyl]-2-methylpyridine-3-carboxamide] | 21 nM | 50 nM | – |
| Cc1ccc(-c2ccc3nc(NC(=O)[C@H](C)O)cn3n2)cc1C(=O)NCc1cc(OC(F)(F)F)ccc1F [Example 395, (S)-N-(2-fluoro-5-(trifluoromethoxy)benzyl)-5-(2-(2-hydroxypropanamido)imidazo[1,2-b]pyridazin-6-yl)-2-methylbenzamide] | 7 nM | 25 nM | – |
| COc1ncc(-c2ccc3nc(NC(C)=O)c(C)n3n2)cc1C(=O)NCc1ccc(F)c(OC(F)(F)F)c1 [Example 255, 5-{2-acetamido-3-methylimidazo[1,2-b]pyridazin-6-yl}-N-{[4-fluoro-3-(trifluoromethoxy)phenyl]methyl}-2-methoxypyridine-3-carboxamide] | 87 nM | 263 nM | – |
| CCC(=O)Nc1cn2nc(-c3cnc(OC)c(C(=O)N[C@H](C)c4cc(OC(F)(F)F)ccc4F)c3)ccc2n1 [Example 245, N-[(1R)-1-[2-fluoro-5-(trifluoromethoxy)phenyl]ethyl]-2-methoxy-5-{2-propanamidoimidazo[1,2-b]pyridazin-6-yl}pyridine-3-carboxamide] | 486 nM | 132 nM | – |
| CC(=O)Nc1cn2nc(-c3ccc(C)c(C(=O)NCc4cc(OC(F)(F)F)ccc4F)c3)ccc2n1 [Example 394, 5-{2-acetamidoimidazo [1,2-b]pyridazin-6-yl}-N-{[2-fluoro-5-(trifluoromethoxy)phenyl]methyl}-2-methylbenzamide] | 3 nM | 3 nM | – |
| COc1ccc(-c2ccc3nc(NC(C)=O)cn3n2)c(F)c1C(=O)NCc1ccccc1OCC1CC1 [Example 377, N-{[2-(cyclopropylmethoxy)phenyl]methyl}-3-{2-acetamidoimidazo [1,2-b]pyridazin-6-yl}-2-fluoro-6-methoxybenzamide] | 67 nM | 135 nM | – |
| CC(=O)Nc1cn2nc(-c3cnc(C)c(C(=O)NCC[C@@H](O)c4ccc(Cl)cc4)c3)ccc2n1 [Example 211, N-[(3R)-3-(4-chlorophenyl)-3-hydroxypropyl]-5-{2-acetamidoimidazo[1,2-b]pyridazin-6-yl}-2-methylpyridine-3-carboxamide] | 62 nM | 137 nM | – |
| CC(=O)Nc1cn2nc(-c3ccc(F)c(C(=O)NCc4cc(F)ccc4C(=O)N4CCC(F)(F)CC4)c3F)ccc2n1 [Example 381, N-{[2-(4,4-difluoropiperidine-1-carbonyl)-5-fluorophenyl]methyl}-3-{2-acetamidoimidazo [1,2-b]pyridazin-6-yl}-2,6-difluorobenzamide] | 8 nM | 74 nM | – |
| COc1nc(C)c(-c2ccc3nc(NC(C)=O)cn3n2)cc1C(=O)NCc1cccc(F)c1OCC1CCC1 [Example 288, N-{[2-(cyclobutylmethoxy)-3-fluorophenyl]methyl}-5-{2-acetamidoimidazo[1,2-b]pyridazin-6-yl}-2-methoxy-6-methylpyridine-3-carboxamide] | 6 nM | 1 nM | – |
| [2H]C([2H])([2H])Oc1ncc(-c2ccc3nc(NC(C)=O)cn3n2)cc1C(=O)NCc1cc(OC)ccc1F [Example 40, 5-{2-acetamidoimidazo[1,2-b]pyridazin-6-yl}-N-[(2-fluoro-5-methoxyphenyl)methyl]-2-(D3)methoxypyridine-3-carboxamide] | 125 nM | 265 nM | – |
| CC(=O)Nc1cn2nc(-c3cnc(C)c(C(=O)NCc4ccccc4OC(C)C)c3)ccc2n1 [Example 20, 5-{2-acetamidoimidazo[1,2-b]pyridazin-6-yl}-2-methyl-N-{[2-(propan-2-yloxy)phenyl]methyl}pyridine-3-carboxamide] | 46 nM | 63 nM | – |
| CC(=O)Nc1cn2nc(-c3cnc(C(F)(F)F)c(C(=O)NCc4cc(C(F)(F)F)ccc4F)c3)ccc2n1 [Example 30, 5-{2-acetamidoimidazo[1,2-b]pyridazin-6-yl}-N-{[2-fluoro-5-(trifluoromethyl)phenyl]methyl}-2-(trifluoromethyl)pyridine-3-carboxamide] | 199 nM | 341 nM | – |
| COc1ncc(-c2ccc3nc(NC(C)=O)cn3n2)cc1C(=O)NCc1c(F)cc(F)cc1OCC1CC1 [Example 150, N-{[2-(cyclopropylmethoxy)-4,6-difluorophenyl]methyl}-5-{2-acetamidoimidazo[1,2-b]pyridazin-6-yl}-2-methoxypyridine-3-carboxamide] | 18 nM | 24 nM | – |
| COc1ncc(-c2ccc3nc(NC(=O)C(C)(C)C#N)cn3n2)cc1C(=O)NCc1cc(OC(F)(F)F)ccc1F [Example 28, 5-[2-(2-cyano-2,2-dimethylacetamido)imidazo[1,2-b]pyridazin-6-yl]-N-{[2-fluoro-5-(trifluoromethoxy)phenyl]methyl}-2-methoxypyridine-3-carboxamide] | 285 nM | 248 nM | – |
| [2H]C([2H])([2H])Oc1ncc(-c2ccc3nc(NC(C)=O)cn3n2)cc1C(=O)N[C@H](C)c1cc(OC(F)(F)F)ccc1F [Example 47, 5-{2-acetamidoimidazo[1,2-b]pyridazin-6-yl}-N-[(1R)-1-[2-fluoro-5-(trifluoromethoxy)phenyl]ethyl]-2-(D3)methoxypyridine-3-carboxamide] | 161 nM | 85 nM | – |
| [2H]C([2H])([2H])Oc1nc(C)c(-c2ccc3nc(NC(C)=O)cn3n2)cc1C(=O)NCc1ccccc1OC(F)(F)F [Example 178, 5-{2-acetamidoimidazo[1,2-b]pyridazin-6-yl}-2-(deutero) methoxy-6-methyl-N-{[2-(trifluoromethoxy)phenyl]methyl} pyridine-3-carboxamide] | 4 nM | 20 nM | – |
| CC(=O)Nc1cn2nc(-c3cnc(C)c(C(=O)NCc4ccccc4OC4CCCC4)c3)ccc2n1 [Example 225, N-{[2-(cyclopentyloxy)phenyl]methyl}-5-{2-acetamidoimidazo[1,2-b]pyridazin-6-yl}-2-methylpyridine-3-carboxamide] | 5 nM | 3 nM | – |
| COc1ncc(-c2ccc3nc(NC(C)=O)cn3n2)cc1C(=O)NCc1cccc(OC(F)(F)F)c1 [Example 126, 5-{2-acetamidoimidazo[1,2-b]pyridazin-6-yl}-2-methoxy-N-{[3-(trifluoro-methoxy)phenyl]methyl}pyridine-3-carboxamide] | 73 nM | 78 nM | – |
| [2H]C([2H])(NC(=O)c1cc(-c2ccc3nc(NC(C)=O)cn3n2)c(C)nc1C)c1cc(F)cc(F)c1OC1CCOCC1 [Example 66, N-{[3,5-difluoro-2-(oxan-4-yloxy)phenyl](deutero)methyl}-5-{2-acetamidoimidazo[1,2-b]pyridazin-6-yl}-2,6-dimethylpyridine-3-carboxamide] | 9 nM | 8 nM | – |
| CC(=O)Nc1cn2nc(-c3cc(C(=O)NCc4cc(C(=O)N5CCCC5(C)C)ccc4F)c(C)cc3F)ccc2n1 [Example 416, N-{[5-(2,2-dimethylpyrrolidine-1-carbonyl)-2-fluorophenyl]methyl}-5-{2-acetamidoimidazo [1,2-b]pyridazin-6-yl}-4-fluoro-2-methylbenzamide] | 13 nM | 72 nM | – |
